TGI data for 27 compounds are collected here from PubChem BioAssay (NCI).

Holding throughout (assay): DTP human tumour cell line panel, 48 h
The test system of assay [1] is DU-145 prostate.
For assay [2], the system named is RXF 393 renal.
Assay [3] concerns A549 NSCLC.
Assay [4] deals with NCI-H226 lung.
Assay [5] has as its system EKVX NSCLC.
Assay [6] relates to CCRF-CEM leukemia.
Assay [7] has as its system TK-10 renal.
In assay [8] the test system is OVCAR-5 ovarian.
The subject of assay [9] is MCF7 breast.
Assay [10] deals with MDA-N.
The subject of assay [11] is IGROV1 ovarian.

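Tested at 5 concentrations; 48 h exposure; 96-well plates; endpoints linearly interpolated, else capped at highest concentration. TGI denotes the concentration required for complete inhibition of growth.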

As usually defined, the TGI is the concentration giving total growth inhibition. For the compound `O=c1[nH]/c(=C/c2ccc3c(c2)OCO3)c(=O)[nH]/c1=C/c1ccc2c(c1)OCO2`, the TGI in assay [1], in assay [2], in [3], in assay [4], in assay [5] and in [6] was above 10 µM in each case. Also, the TGI in [7], in assay [8], in assay [9], in assay [10] and in assay [11] was above 10 µM throughout.

On to `CC(C)OC(=O)c1ccc(NCc2cc(O)ccc2O)cc1`, for which the TGI in assay [1] is 15.4 µM; in [2], 5.79 µM; in assay [3], above 67.8 µM; in assay [4] it was 18.9 µM; in assay [5] it was 17.5 µM; in assay [6], above 100 µM. The TGI in [7] amounted to 14.7 µM; in [8] it was 15.9 µM; in assay [9], 18.9 µM; in assay [10], 13.2 µM; in assay [11] it was 15 µM.

`O=c1[nH]nc(Cc2ccccc2)n1/N=C/c1cccs1`: the TGI in assay [1], in assay [2], in [3], in assay [4], in [5] and in assay [6] was above 100 µM each time. Also, the TGI in assay [8], in assay [9] and in assay [10] was above 100 µM in each case.

As for `Cc1cccc(C2ON=C(c3ccccc3)N2C23CC4CC(CC(C4)C2)C3)c1` (stereo not given), the TGI in assay [1], in [2], in assay [3], in assay [4], in assay [5] and in assay [6] was above 10 µM each time. For the same compound, the TGI in assay [7], in [8], in assay [9], in [10] and in assay [11] was above 10 µM in each case.

Consider `CC(=O)OI1NC(=O)c2ccccc21`, for which the TGI in [1], in assay [3], in assay [4], in assay [5], in assay [6] and in [7] was above 100 µM in each case. For the same compound, the TGI in assay [8], in assay [9], in [10] and in assay [11] was above 100 µM throughout.

As to `Clc1ccc(Cl)c(N=Nc2cc3c4c(c2)CCN4CCC3)c1`, the TGI in [1], in assay [2], in assay [3], in assay [4], in assay [5] and in assay [6] was above 10 µM each time. Further, the TGI in assay [7], in [9], in [10] and in [11] was above 10 µM each time.

With `CSc1nc(=S)[nH]c2c1c(C)nn2-c1ccccc1`, the TGI in assay [1] is 40.6 µM; in assay [2], 94.1 µM; in assay [3], above 100 µM; in assay [4], 51.2 µM; in assay [5], 46.6 µM; in [6] it was 49 µM. The TGI in assay [7] was above 100 µM; in [8], above 100 µM; in assay [9] it was 46.1 µM; in assay [10], above 100 µM.

For `Brc1ccc(C2C3CSc4ccccc4C3=NN2c2ccccc2)cc1` (stereo not given), the TGI in assay [1], in assay [2], in [3], in assay [4], in [6] and in assay [7] was above 100 µM in each case. Besides, the TGI in assay [9], in assay [10] and in assay [11] was above 100 µM each time.

For the compound `CCS(=O)C(=O)N(O)c1ccc(Cl)cc1` (stereo not given), the TGI in [1] is above 100 µM; in [2], 41.6 µM; in assay [3], above 100 µM; in assay [4], above 100 µM; in [5], above 100 µM; in [6], 63.2 µM. Moreover, the TGI in assay [7] is above 100 µM; in assay [8], above 100 µM; in assay [9] it was 50.9 µM; in [10], 41.4 µM.

With `COC(=O)c1ccc2c(c1)CC1(C2)Cc2cc3c(cc2C1)CCC3`, the TGI in [1], in assay [2], in assay [3], in assay [5], in assay [6] and in [7] was above 100 µM throughout. Moreover, the TGI in assay [8], in assay [9], in assay [10] and in assay [11] was above 100 µM each time.

With `CSc1ncnc2c1cnn2Cc1cnnn1COCC(O)CO` (stereo not given), the TGI in [1], in assay [3], in assay [4], in assay [5], in assay [6] and in [7] was above 100 µM throughout. Further, the TGI in assay [8], in assay [9], in assay [10] and in [11] was above 100 µM each time.

For the compound `O=C1N=C2SC=C(NC(=S)Nc3ccccc3)N2NC12c1ccccc1-c1ccccc12`, the TGI in assay [1], in assay [2], in [3], in assay [4], in [5] and in assay [6] was above 10 µM throughout. The TGI in assay [7], in assay [8], in assay [9], in assay [10] and in [11] was above 10 µM throughout.

Turning to `CC(C)C1CNC(=O)C2(C=NC(C(C)C)CNC(=O)C3(C=N1)CCCO3)CCCO2` (stereo not given), the TGI in assay [1], in assay [2], in assay [3], in [5], in [6] and in assay [7] was above 10 µM throughout. Besides, the TGI in [9], in assay [10] and in [11] was above 10 µM each time.

In the case of `O=C(NCCN1CCCCC1)c1ccc(Br)cc1`, the total growth inhibition concentration (TGI) in assay [1], in assay [2], in assay [3], in [5], in [7] and in [8] was above 100 µM in each case. For the same compound, the TGI in [9], in [10] and in [11] was above 100 µM each time.

Regarding `CCCCOCCOCCOC1=CC(=O)c2c(O)ccc(O)c2C1=O`, the TGI in assay [1] was 3.1 µM; in assay [2], 3.63 µM; in assay [3], 3.43 µM; in assay [4], 3.59 µM; in assay [5], above 10 µM; in [6], 6.01 µM. Besides, the TGI in [7] was 5.28 µM; in assay [9], 4.01 µM; in assay [10] it was 0.329 µM; in assay [11], 3.38 µM.

For the compound `CC1(C)OC(=O)C(C)(C)C(=O)O1`, the TGI in assay [1], in assay [3], in assay [4], in assay [5], in [6] and in assay [7] was above 100 µM in each case. In addition, the TGI in [8], in assay [9], in assay [10] and in [11] was above 100 µM each time.

Turning to `Cc1ccc(S(=O)c2cccs2)cc1` (stereo not given), the TGI in assay [1], in [2], in assay [3], in [4], in [5] and in assay [6] was above 100 µM throughout. The TGI in [7], in assay [8], in assay [9] and in assay [10] was above 100 µM in each case.

Consider `COC(=O)C1(NC(=O)C(Cc2ccccc2)N(C(=O)OC(C)(C)C)C(=O)OC(C)(C)C)CCCC1` (stereo not given), for which the TGI in assay [1], in assay [3], in assay [4], in assay [5], in assay [6] and in assay [7] was above 100 µM each time. Further, the TGI in assay [8] is above 100 µM; in assay [9], 64.6 µM; in assay [10] it was above 100 µM; in [11], above 100 µM.

Take `CCOC1OC(CO)C(O)CC1n1ccc(=O)[nH]c1=O` (stereo not given): the TGI in assay [1], in [2], in assay [3], in assay [4], in assay [5] and in assay [7] was above 100 µM each time. The total growth inhibition concentration (TGI) in assay [8], in [9], in assay [10] and in [11] was above 100 µM in each case.

Regarding `O[C@]12C=C(c3nccc4c3[nH]c3ccccc34)[C@@H]3CCN(CCCC/C=C\CC1)C[C@@]31CC3/C=C\CCCCN3[C@H]12` (stereo not given in full), the TGI was 2.86 µM in [1]; 11.2 µM in assay [3]; 5.2 µM in assay [4]; 3.57 µM in assay [5]; above 29.6 µM in [6]; 1.95 µM in [7]. Further, the TGI in assay [8] was 1.83 µM; in assay [9] it was 1.83 µM; in assay [10], 1.31 µM; in assay [11] it was 2.28 µM.

Turning to `COc1ccc(C2=Nc3c(nc(OC)[nH]c3=O)NC(c3ccccc3)C2)cc1` (stereo not given), the concentration for total growth inhibition (TGI) in [1] is above 100 µM; in [2] it was 63.9 µM; in assay [3], above 100 µM; in [4], above 100 µM; in [5], above 100 µM; in assay [6], above 100 µM. For the same compound, the TGI in assay [8] was above 100 µM; in assay [9], 68.2 µM; in assay [10], 64.5 µM; in assay [11], above 100 µM.

As for `COc1ccc(Nc2nc3ccccc3n3cccc23)cc1OC`, the total growth inhibition concentration (TGI) in assay [1] stood at 35.6 µM; in assay [2], 33.1 µM; in [3], 43.6 µM; in assay [5] it was 68.5 µM; in [6], 15.2 µM; in assay [7] it was 39 µM. Besides, the TGI in assay [8] is above 100 µM; in assay [9], 29.6 µM; in assay [10], 29.4 µM; in assay [11] it was 52.3 µM.

For the compound `CCOC(=O)N/N=C(/N)c1cccc(Br)c1`, the TGI in assay [1], in assay [2], in assay [3], in assay [5], in assay [6] and in assay [7] was above 100 µM throughout. Further, the TGI in [8], in assay [9], in assay [10] and in assay [11] was above 100 µM each time.

Consider `Clc1ccc(Nc2nnc(CNc3ccc(-c4nnc(Nc5ccc(Cl)cc5)s4)cc3)s2)cc1`, for which the TGI in assay [1], in assay [2], in assay [3], in assay [4], in [5] and in assay [7] was above 100 µM throughout. Also, the TGI in assay [8] was above 100 µM; in assay [9], above 100 µM; in assay [10] it was 58.1 µM; in [11], above 100 µM.

For the compound `C=C1CC(C)(COc2ccc3c(C)c(Cl)c(=O)oc3c2)OC1=O` (stereo not given), the TGI stood at 6.8 µM in [1]; 25.5 µM in assay [3]; 17.8 µM in assay [4]; 20.8 µM in [5]; 2.54 µM in assay [6]; 3.06 µM in assay [7]. The TGI in assay [8] amounted to 13.4 µM; in [9] it was 3.15 µM; in assay [10] it was 5.45 µM; in [11], 3.94 µM.

With `CN(C)CCN(C)P12(Oc3ccccc3O1)Oc1c(Cl)c(Cl)c(Cl)c(Cl)c1O2`, the TGI in [1] was above 100 µM; in assay [3], above 100 µM; in assay [4], above 100 µM; in assay [5], above 100 µM; in assay [6], 92.2 µM; in assay [7], above 100 µM. In addition, the TGI in assay [8], in assay [9], in [10] and in assay [11] was above 100 µM each time.

Consider `COc1ccc(-n2c(CCC(=O)O)nc3c2C(=O)c2ccccc2C3=O)cc1`, for which the TGI in assay [1], in assay [2], in assay [3], in [4], in assay [5] and in assay [6] was above 100 µM in each case. Besides, the TGI in [7], in assay [8], in assay [9] and in assay [10] was above 100 µM each time.
